Measured values reported in paper PMC8330740, “Discovery of new 3-methylquinoxalines as potential anti-cancer agents and apoptosis inducers targeting VEGFR-2: design, synthesis, and in silico studies” (Journal of Enzyme Inhibition and Medicinal Chemistry, 2021).

Assays:
[1] = test system: MCF-7 (human breast cancer cell line); experiment: MTT cytotoxicity assay, MCF-7; type: cell-based; conditions: for IC50: Homo sapiens, MCF7, MTT assay, mean of at least three different experiments; for Cytotoxic activity against the two cell lines (in words): MCF-7 and HepG2 together
Method: (§1) In vitro cytotoxicity was carried out using MTT assay protocol[47]^,[65–67] as described in Supplementary data.

[2] = test system: HepG2 (human liver carcinoma cell line); experiment: MTT cytotoxicity assay, HepG2; type: cell-based; conditions: mean of at least three different experiments
Method: as §1

Human VEGFR-2 = Human VEGFR-2 (Homo sapiens, UniProt P35968); experiment: In vitro VEGFR-2 kinase assay (Human VEGFR-2 ELISA kit)
Human VEGFR-2, sequence (P35968 20-1356): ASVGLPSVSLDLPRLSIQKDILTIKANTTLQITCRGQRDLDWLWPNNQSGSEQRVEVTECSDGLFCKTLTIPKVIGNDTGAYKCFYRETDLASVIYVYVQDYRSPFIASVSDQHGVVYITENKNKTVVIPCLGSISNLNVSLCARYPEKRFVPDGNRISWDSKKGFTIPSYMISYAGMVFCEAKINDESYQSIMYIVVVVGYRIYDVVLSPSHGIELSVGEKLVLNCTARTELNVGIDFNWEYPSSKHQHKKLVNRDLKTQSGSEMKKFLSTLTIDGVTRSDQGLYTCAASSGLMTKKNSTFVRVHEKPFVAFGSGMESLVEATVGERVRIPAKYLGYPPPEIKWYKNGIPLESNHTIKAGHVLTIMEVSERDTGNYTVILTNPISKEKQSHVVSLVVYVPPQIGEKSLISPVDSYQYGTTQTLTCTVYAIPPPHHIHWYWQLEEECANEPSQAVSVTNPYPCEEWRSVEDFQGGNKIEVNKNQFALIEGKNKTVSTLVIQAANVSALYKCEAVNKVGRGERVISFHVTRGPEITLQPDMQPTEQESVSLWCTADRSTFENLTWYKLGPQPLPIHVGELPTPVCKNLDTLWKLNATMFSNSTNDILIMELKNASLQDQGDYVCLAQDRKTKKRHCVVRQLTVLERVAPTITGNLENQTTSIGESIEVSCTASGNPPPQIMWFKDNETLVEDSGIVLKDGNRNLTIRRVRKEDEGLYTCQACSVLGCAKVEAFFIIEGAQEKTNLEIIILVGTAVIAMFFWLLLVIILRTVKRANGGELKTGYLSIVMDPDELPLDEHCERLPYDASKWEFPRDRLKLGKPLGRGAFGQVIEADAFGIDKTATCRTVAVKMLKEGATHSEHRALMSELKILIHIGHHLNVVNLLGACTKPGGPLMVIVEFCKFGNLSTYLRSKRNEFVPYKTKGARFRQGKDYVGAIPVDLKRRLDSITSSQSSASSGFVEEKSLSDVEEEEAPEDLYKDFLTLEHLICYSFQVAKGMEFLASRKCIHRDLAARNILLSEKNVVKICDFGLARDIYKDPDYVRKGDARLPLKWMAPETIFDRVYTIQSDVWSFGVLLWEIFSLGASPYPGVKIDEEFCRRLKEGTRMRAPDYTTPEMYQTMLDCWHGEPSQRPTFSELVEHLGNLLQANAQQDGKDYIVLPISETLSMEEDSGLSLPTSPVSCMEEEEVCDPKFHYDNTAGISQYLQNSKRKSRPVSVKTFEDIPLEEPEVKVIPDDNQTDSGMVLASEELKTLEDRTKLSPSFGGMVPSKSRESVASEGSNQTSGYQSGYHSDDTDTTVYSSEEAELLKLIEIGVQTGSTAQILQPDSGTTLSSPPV

HepG2 cells [3] = experiment: Cell cycle analysis (propidium iodide staining, flow cytometry); type: cell-based, human; conditions: HepG2, 2.1 µM, 24 h
Method: HepG2 cells were used as a control without treatment by compound 11e.
The effect of compound 11e on cell cycle distribution was performed using propidium iodide (PI) staining technique as described in Supplementary data[71–73].

HepG2 cells [4] = experiment: Apoptosis analysis (Annexin-V/propidium iodide staining); type: cell-based, human; conditions: HepG2, 2.1 µM, 24 h
Method: To quantify the apoptosis triggered by 11e, Annexin-V/propidium iodide (PI) staining assay was conducted. In such procedure, compound 11e at a concentration of 2.1 µM was applied on HepG2 cells. Then, the media were incubated for 24 h. […] In details, compound 11e induced apoptosis by 49.14% (early apoptosis = 48.87% & late apoptosis = 0.27%), compared to 9.71% in the control cells (early apoptosis = 9.58% & late apoptosis = 0.13%).
The effect of compound 11e on cell apoptosis was investigated as described in Supplementary data[74–76].

caspase-3 = experiment: Western blot, caspase-3 level in HepG2; type: cell-based, human; conditions: HepG2, 2.1 µM, 24 h; compared to control cells
Method: (§2) To investigate the effect of the synthesised compounds on caspase-3 and caspase-9 levels, the most promising member 11e was applied on the most sensitive cells (HepG2) at a concentration of 2.1 µM for 24 h.
(§3) Western blot technique was applied to assess the potential effect of compound 11e on the expression of caspase‐9, caspase‐3, BAX, and Bcl‐2 as reported in Supplementary data[77–79].

caspase-9 = experiment: Western blot, caspase-9 level in HepG2; type: cell-based, human; conditions: HepG2, 2.1 µM, 24 h; compared to control cells
Method: as §2, §3

BAX = experiment: Western blot, BAX level in HepG2; type: cell-based, human; conditions: HepG2, 24 h
Method: (§4) Compound 11e as a promising member was investigated to evaluate its effect on BAX and Bcl-2 after 24 h of its application on HepG2 cells using Western blot technique.
as §3

Bcl-2 = experiment: Western blot, Bcl-2 level in HepG2; type: cell-based, human; conditions: HepG2, 24 h
Method: as §4, §3

primary rat hepatocytes = experiment: In vitro cytotoxicity against normal cells; conditions: Hepatocyte, read-out: IC50 primary rat hepatocytes
[5] = mean ± SD of three experiments, listed as Compound 11e

| SMILES | IC50 (Human VEGFR-2) [µM] | IC50 [1] [µM] | IC50 [2] [µM] | further results |
| --- | --- | --- | --- | --- |
| CNC(=O)c1ccc(NC(=O)Cn2c(=O)c(C)nc3ccccc32)cc1 [Compound 11a, N-Methyl-4–(2-(3-methyl-2-oxoquinoxalin-1(2H)-yl)acetamido)benzamide] | 0.0112 | 23.9 | 16.5 |  |
| CCC(C)NC(=O)c1ccc(NC(=O)Cn2c(=O)c(C)nc3ccccc32)cc1 (stereo not drawn) [Compound 11b, N-(sec-Butyl)-4–(2-(3-methyl-2-oxoquinoxalin-1(2H)-yl)acetamido)benzamide] | 0.0053 | 21.2 | 12.8 |  |
| Cc1nc2ccccc2n(CC(=O)Nc2ccc(C(=O)NC3CCCC3)cc2)c1=O [Compound 11c, N-Cyclopentyl-4–(2-(3-methyl-2-oxoquinoxalin-1(2H)-yl)acetamido)benzamide] | 0.0127 | 28.1 | 18.7 |  |
| COc1ccccc1NC(=O)c1ccc(NC(=O)Cn2c(=O)c(C)nc3ccccc32)cc1 [Compound 11d, N-(2-Methoxyphenyl)-4–(2-(3-methyl-2-oxoquinoxalin-1(2H)-yl)acetamido)benzamide] | 0.0374 | 52.3 | 34.1 | Cytotoxic activity against the two cell lines (in words) [1]: weak cytotoxic activity |
| COc1cccc(NC(=O)c2ccc(NC(=O)Cn3c(=O)c(C)nc4ccccc43)cc2)c1 [Compound 11e, N-(3-Methoxyphenyl)-4–(2-(3-methyl-2-oxoquinoxalin-1(2H)-yl)acetamido)benzamide] | 0.0026 | 2.7 | 2.1 | phase at which HepG2 cell growth is arrested (HepG2 cells [3]): G2/M phase; percentage of cells at the G2/M phase (HepG2 cells [3]; control 18.24%): 46.62%; percentage of cells at the S phase (HepG2 cells [3]; control 25.48): 31.80%; percentage of cells at G1 phase (HepG2 cells [3]; control 55.03%): 20.34%; induced apoptosis (early + late) (HepG2 cells [4]; control 9.71%): 49.14%; Apoptosis Early (Right Bottom) (HepG2 cells [4]; mean ± SD of three experiments): 48.87%; Apoptosis Late (Right Top) (HepG2 cells [4]; mean ± SD of three experiments): 0.27%; Necrosis (Left Top) (HepG2 cells [4]; mean ± SD of three experiments): 0.20 ± 0.03; Apoptosis Early (Right Bottom) (HepG2 cells [4]; [5]): 48.87 ± 3.69%; Apoptosis Late (Right Top) (HepG2 cells [4]; [5]): 0.27 ± 0.04%; viability at 2.1 µM (HepG2 cells [4]; Homo sapiens, mean ± SD of three experiments, read-out: Viable (Left Bottom)): 50.6 ± 3.66%; increase in the level of caspase-3 (caspase-3): 2.34 fold; increase in the level of caspase-9 (caspase-9): 2.34 fold; BAX level increase (BAX): 3.14 fold; BAX/Bcl-2 ratio (BAX): 9.17; Bcl-2 level decrease (Bcl-2): 3.13 fold; IC50 (primary rat hepatocytes): 15 µM |
| COc1ccc(NC(=O)c2ccc(NC(=O)Cn3c(=O)c(C)nc4ccccc43)cc2)cc1 [Compound 11f, N-(4-Methoxyphenyl)-4–(2-(3-methyl-2-oxoquinoxalin-1(2H)-yl)acetamido)benzamide] | 0.0048 | 12.4 | 9.6 |  |
| CC(=O)c1ccc(NC(=O)c2ccc(NC(=O)Cn3c(=O)c(C)nc4ccccc43)cc2)cc1 [Compound 11g, N-(4-Acetylphenyl)-4–(2-(3-methyl-2-oxoquinoxalin-1(2H)-yl)acetamido)benzamide] | 0.0034 | 6.7 | 3.8 |  |
| Cc1nc2ccccc2n(CC(=O)Nc2ccc(C(=O)Nc3ccc(F)cc3)cc2)c1=O [Compound 11h, N-(4-Fluorophenyl)-4–(2-(3-methyl-2-oxoquinoxalin-1(2H)-yl)acetamido)benzamide] | 0.0116 | 25.8 | 22.7 | Cytotoxic activity against the two cell lines (in words) [1]: weak cytotoxic activity |
| Cc1nc2ccccc2n(CC(=O)Nc2ccc(C(=O)Nc3ccccn3)cc2)c1=O [Compound 11i, 4–(2-(3-Methyl-2-oxoquinoxalin-1(2H)-yl)acetamido)-N-(pyridin-2-yl)benzamide] | 0.0527 | 69.7 | 51.8 | Cytotoxic activity against the two cell lines (in words) [1]: weak cytotoxic activity |
| Cc1nc2ccccc2n(CC(=O)Nc2ccc(C(=O)Nc3nccs3)cc2)c1=O [Compound 11j, 4–(2-(3-Methyl-2-oxoquinoxalin-1(2H)-yl)acetamido)-N-(thiazol-2-yl)benzamide] | 0.0134 | 32.8 | 27.8 | Cytotoxic activity against the two cell lines (in words) [1]: weak cytotoxic activity |
| CNC(=O)c1cc(Oc2ccc(NC(=O)Nc3ccc(Cl)c(C(F)(F)F)c3)cc2)ccn1 [Sorafenib, reference compound] |  | 3.4 | 2.2 | IC50 (primary rat hepatocytes): 13.4 µM |

Continued, in another order:

| IC50 (Human VEGFR-2) [µM] | SMILES | IC50 [1] [µM] | IC50 [2] [µM] | further results |
| --- | --- | --- | --- | --- |
| 0.0327 | CNC(=O)c1ccc(NC(=O)CSc2nc3ccccc3nc2C)cc1 [Compound 12a, N-Methyl-4–(2-((3-methylquinoxalin-2-yl)thio)acetamido)benzamide] | 69.2 | 23.7 | Cytotoxic activity against the two cell lines (in words) [1]: weak cytotoxic activity |
| 0.0157 | CCC(C)NC(=O)c1ccc(NC(=O)CSc2nc3ccccc3nc2C)cc1 (stereo not drawn) [Compound 12b, N-(sec-Butyl)-4–(2-((3-methylquinoxalin-2-yl)thio)acetamido)benzamide] | 35.7 | 21.7 | Cytotoxic activity against the two cell lines (in words) [1]: weak cytotoxic activity |
| 0.0198 | Cc1nc2ccccc2nc1SCC(=O)Nc1ccc(C(=O)NC2CCCC2)cc1 [Compound 12c, N-Cyclopentyl-4–(2-((3-methylquinoxalin-2-yl)thio)acetamido)benzamide] | 31.3 | 18.7 |  |
| 0.0134 | COc1ccccc1NC(=O)c1ccc(NC(=O)CSc2nc3ccccc3nc2C)cc1 [Compound 12d, N-(2-Methoxyphenyl)-4–(2-((3-methylquinoxalin-2-yl)thio)acetamido) benzamide] | 23.5 | 17.6 |  |
| 0.0038 | COc1cccc(NC(=O)c2ccc(NC(=O)CSc3nc4ccccc4nc3C)cc2)c1 [Compound 12e, N-(3-Methoxyphenyl)-4–(2-((3-methylquinoxalin-2-yl)thio)acetamido) benzamide] | 5.3 | 4.8 | IC50 (primary rat hepatocytes): 16.7 µM |
| 0.0038 | COc1ccc(NC(=O)c2ccc(NC(=O)CSc3nc4ccccc4nc3C)cc2)cc1 [Compound 12f, N-(4-Methoxyphenyl)-4–(2-((3-methylquinoxalin-2-yl)thio)acetamido) benzamide] | 10.8 | 7.5 |  |
| 0.0054 | CC(=O)c1ccc(NC(=O)c2ccc(NC(=O)CSc3nc4ccccc4nc3C)cc2)cc1 [Compound 12g, N-(4-Acetylphenyl)-4–(2-((3-methylquinoxalin-2-yl)thio)acetamido)benzamide] | 8.7 | 6.1 |  |
| 0.0514 | Cc1nc2ccccc2nc1SCC(=O)Nc1ccc(C(=O)Nc2ccc(F)cc2)cc1 [Compound 12h, N-(4-Fluorophenyl)-4–(2-((3-methylquinoxalin-2-yl)thio)acetamido)benzamide] | 67.8 | 35.8 |  |
| 0.0241 | Cc1nc2ccccc2nc1SCC(=O)Nc1ccc(C(=O)Nc2ccccn2)cc1 [Compound 12i, 4–(2-((3-Methylquinoxalin-2-yl)thio)acetamido)-N-(pyridin-2-yl)benzamide] | 58.6 | 44.7 |  |
| 0.0378 | Cc1cccc(NC(=O)c2ccc(NC(=O)CSc3nc4ccccc4nc3C)cc2)c1 [Compound 12j, 4–(2-((3-Methylquinoxalin-2-yl)thio)acetamido)-N-(m-tolyl)benzamide] | 61.2 | 40.7 |  |
| 0.0029 | Cc1ccc(NC(=O)c2ccc(NC(=O)CSc3nc4ccccc4nc3C)cc2)cc1 [Compound 12k, 4–(2-((3-Methylquinoxalin-2-yl)thio)acetamido)-N-(p-tolyl)benzamide] | 9.8 | 6.7 |  |
